Assay results: patent publication US5760072A, “Paclitaxel prodrugs, method for preparation as well as their use in selective chemotherapy” (Pharmachemie B.V., priority 1995, dated 1998)
Structures can show the parent of a compound that is named as a salt.

What was measured:
human β-glucuronidase = target: T1, human β-glucuronidase (Homo sapiens, UniProt P08236); assay: Enzyme catalyzed hydrolysis of prodrug by human β-glucuronidase, HPLC; type: biochemical; conditions: for ratio prodrug/paclitaxel: 37° C., pH=6.8, HPLC peak areas; for intermediates (spacer attached to paclitaxel, compounds 5 and 7b) during enzyme catalyzed hydrolysis / enzymatic hydrolysis rate / paclitaxel found in experiment without human β-glucuronidase: in words; for enzymatic hydrolysis rate: appropriate enzyme; for paclitaxel found in experiment without human β-glucuronidase: no enzyme, PBS pH=6.8, 37° C., up to 180 min; for half life of hydrolysis by β-glucuronidase: prodrug 100 μM, enzyme 10 μg mL^-1
T1 construct: lysosomal homotetramer
T1 sequence (P08236 23-651): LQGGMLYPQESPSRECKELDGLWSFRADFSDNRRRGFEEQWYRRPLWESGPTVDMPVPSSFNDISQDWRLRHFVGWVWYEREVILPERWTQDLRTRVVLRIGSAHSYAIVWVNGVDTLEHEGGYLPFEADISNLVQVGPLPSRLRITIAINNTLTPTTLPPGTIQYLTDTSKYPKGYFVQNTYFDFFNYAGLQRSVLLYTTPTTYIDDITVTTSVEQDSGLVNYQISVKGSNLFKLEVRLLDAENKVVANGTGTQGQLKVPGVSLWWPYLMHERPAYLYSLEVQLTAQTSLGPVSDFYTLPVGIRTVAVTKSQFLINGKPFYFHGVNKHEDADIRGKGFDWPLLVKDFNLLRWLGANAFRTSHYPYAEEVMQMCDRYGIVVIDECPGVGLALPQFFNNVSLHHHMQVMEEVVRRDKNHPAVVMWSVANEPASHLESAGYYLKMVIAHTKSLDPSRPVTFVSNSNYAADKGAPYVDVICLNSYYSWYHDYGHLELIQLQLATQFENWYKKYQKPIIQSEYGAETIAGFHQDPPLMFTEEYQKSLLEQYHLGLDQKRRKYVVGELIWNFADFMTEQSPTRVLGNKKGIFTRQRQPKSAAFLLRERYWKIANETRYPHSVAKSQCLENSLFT
Experimental: To 140 μL PBS buffer (pH=6.8) was added 20 μL of a 1 mM solution of prodrug 1 in PBS buffer (pH=6.8) and 20 μL of 1% bovine serum albumin also in PBS buffer (pH=6.8). After incubation of the mixture for 10 min. at 37° C. 20 μL of a solution of 0.1 mg mL^-1 human β-glucuronidase (H. J. Haisma, Hybridoma, in press) was added. Directly after the addition of the enzyme to the reaction mixture an aliquot of 10 μL was taken and diluted with 90 μL cold acetonitrile (-20° C.) in order to stop the enzyme reaction. The reaction mixture was incubated for 3 hr at 37° C. and samples were taken at 15, 30, 45, 60, 90, 120 and 180 min. All samples were quenched by dilution with cold acetonitrile (-20° C.). […] In the later experiment also samples of 10 μL were taken at 0, 15, 30, 45, 60, 90, 120 and 180 min and were also diluted with cold acetonitrile (-20° C.). The samples of both experiments were analyzed by HPLC (C^18 reverse phase column, eluent: gradient of 10% acetonitrile in water to 90% acetonitrile in water, detection at 226 nm). The ratio of prodrug 1 to paclitaxel as shown in table 1 is determined by measuring the peak areas of the appropriate signals. […] All experiments were carried out in duplo.
20 μL of 1 mM solution of prodrug 2b in PBS buffer (pH=6.8) and 20 μL 1% bovine serum albumin also in PBS buffer (pH=6.8) was added to 140 μL PBS buffer (pH=6.8). Subsequently, the mixture was incubated for 10 min. at 37° C. whereafter 20 μL of a solution of 0.1 mg mL^-1 human β-glucuronidase (H. J. Haisma, Hybridoma, in press) was added and the reaction mixture was incubated at 37° C. Samples were taken and quenched at 0, 15, 30, 45, 60, 90, 120 and 180 min as described above for the enzyme assay of prodrug 1. In order to determine that the hydrolysis was caused by β-glucuronidase, another experiment was carried out without addition of β-glucuronidase as described above in example 7. The samples were analyzed as described for example 7 (vide supra). The ratios presented in table 2, are based on peak areas of the appropriate signals. […] All experiment were carried out in duplo.

[1] = Stability assay in PBS buffer pH 6.8, 37° C., HPLC; type: physicochemical; conditions: for ratio of prodrug/paclitaxel: PBS pH=6.8, 37° C., HPLC peak areas; for stability in PBS buffer: in words, PBS pH=6.8
Experimental: The prodrugs in examples 1 and 2b were all stable in PBS buffer (PBS buffer=NaCl (8 g/L), KCl (0.2 g/L), Na2 HPO4 (1.15 g/L), KH2 PO4 (0.2 g/L), pH=6.8, see example 4 and 5).
To 3.0 mL PBS buffer, pH=6.8, was added 0.37 mg of prodrug 2b (0.30 μmol). The mixture was placed in a water bath of 37° C. […] The ratios are based on peak areas.
In 1.1 mL PBS buffer, pH=6.8, was dissolved 0.13 mg of prodrug 2a (0.11 μmol) and placed in a water bath of 37° C. […] The ratios are based on peak areas.

Solubility in water = type: physicochemical; conditions: for solubility in water compared with parent drug paclitaxel: in words; for solubility: water, read-out: Concentrations reached in water
Experimental: Concentrations of 10 mM in water and higher were reached whereas the solubility of paclitaxel is lower as […] in water (K. C. Nicolaou et al., Nature, 1993, 364, 464-466).

OVCAR-3 cells [2] = assay: In vitro cytotoxicity (anti-proliferative effect) with excess human β-glucuronidase, sulforhodamine B protein dye stain; type: cell-based; conditions: OVCAR-3, with β-glucuronidase
Experimental: (§1) The anti-proliferative effects of paclitaxel, and the prodrugs 1, 2a and 2b on OVCAR-3 cells were determined by measuring the cell growth with a protein dye stain (H. J. Haisma et al. Cell Biophysics 1994, 24/25, 185-192). Cells were seeded in 96-well tissue culture plates (5000 cells/well) and 24 h later (pro)drugs 1, 2a, 2b or 3 were added with or without excess human β-glucuronidase. After 72 hours the cells were fixed with 25% trichloroacetic acid, stained with 0.4% sulforhodamine B, washed with 1% acetic acid and air-dried. The bound dye was then solubilized with 10 mM Tris and the absorbance read at 492 nm. The antiproliferative effects were expressed as IC50 values, which are the (pro)drug concentrations that gave 50% growth inhibition when compared to control cell growth.

OVCAR-3 cells [3] = assay: In vitro cytotoxicity (anti-proliferative effect) without β-glucuronidase, sulforhodamine B protein dye stain; type: cell-based; conditions: for ratio IC50 prodrug/IC50 paclitaxel: OVCAR-3, without β-glucuronidase; for cytotoxicity compared with parent drug paclitaxel: in words
Experimental: as §1

[4] = K. C. Nicolaou et al., Nature, 1993, 364, 464-466; cited from earlier work

| Compound | ratio prodrug/paclitaxel (human β-glucuronidase; 0 min) | ratio prodrug/paclitaxel (human β-glucuronidase; 15 min) | ratio prodrug/paclitaxel (human β-glucuronidase; 30 min) | ratio prodrug/paclitaxel (human β-glucuronidase; 45 min) | ratio prodrug/paclitaxel (human β-glucuronidase; 60 min) | ratio prodrug/paclitaxel (human β-glucuronidase; 90 min) | ratio prodrug/paclitaxel (human β-glucuronidase; 120 min) | ratio prodrug/paclitaxel (human β-glucuronidase; 180 min) | intermediates (spacer attached to paclitaxel, compounds 5 and 7b) during enzyme catalyzed hydrolysis (human β-glucuronidase) | enzymatic hydrolysis rate (human β-glucuronidase) | paclitaxel found in experiment without human β-glucuronidase (human β-glucuronidase) | half life of hydrolysis by β-glucuronidase (human β-glucuronidase) | ratio of prodrug/paclitaxel ([1]; 48 hr) | stability in PBS buffer [1] | solubility in water compared with parent drug paclitaxel (Solubility in water) | solubility (Solubility in water) [mM] | ratio IC50 activated prodrug with β-glucronidase/IC50 paclitaxel (OVCAR-3 cells [2]) | ratio IC50 prodrug/IC50 paclitaxel (OVCAR-3 cells [3]) | cytotoxicity compared with parent drug paclitaxel (OVCAR-3 cells [3]) | also measured |
| --- | --- | --- | --- | --- | --- | --- | --- | --- | --- | --- | --- | --- | --- | --- | --- | --- | --- | --- | --- | --- |
| CC(=O)O[C@H]1C(=O)[C@@]2(C)[C@H]([C@H](OC(=O)c3ccccc3)[C@]3(O)C[C@H](OC(=O)[C@H](OC(=O)CCc4ccccc4NC(=O)O[C@@H]4O[C@H](C(=O)O)[C@@H](O)[C@H](O)[C@H]4O)[C@@H](NC(=O)c4ccccc4)c4ccccc4)C(C)=C1C3(C)C)[C@]1(OC(C)=O)CO[C@@H]1C[C@@H]2O [Prodrug 2b, N-[paclitaxel-2'-O-(2-amino)phenylpropionate]-O-[β-glucuronyl] carbamate sodium salt] | 99/1 | 87/13 | 74/26 | 55/45 | 41/59 | 24/76 | 20/80 | 15/85 | no intermediates | quite fast hydrolyzing rates | no paclitaxel was found | about 45 min | 92/8 | stable | far more better soluble in water as the parent drug paclitaxel | ≥ 10 | 5 | 122 | less cytotoxic as the parent drug | ratio of prodrug/paclitaxel ([1]; 66 hr): 89/11 |
| CC(=O)O[C@H]1C(=O)[C@@]2(C)[C@H]([C@H](OC(=O)c3ccccc3)[C@]3(O)C[C@H](OC(=O)[C@H](O)[C@@H](NC(=O)c4ccccc4)c4ccccc4)C(C)=C1C3(C)C)[C@]1(OC(C)=O)CO[C@@H]1C[C@@H]2O [paclitaxel] |  |  |  |  |  |  |  |  |  |  |  |  |  |  |  |  |  |  |  | solubility in water [4]: < 5 nM |
| CC(=O)O[C@H]1C(=O)[C@@]2(C)[C@H]([C@H](OC(=O)c3ccccc3)[C@]3(O)C[C@H](OC(=O)[C@H](OC(=O)CC(C)(C)CNC(=O)O[C@@H]4O[C@H](C(=O)O)[C@@H](O)[C@H](O)[C@H]4O)[C@@H](NC(=O)c4ccccc4)c4ccccc4)C(C)=C1C3(C)C)[C@]1(OC(C)=O)CO[C@@H]1C[C@@H]2O [Prodrug 1, N-[paclitaxel-2'-O-3,3-dimethyl butanoate]-O-[β-glucuronyl] carbamate sodium salt] | 99/1 | 95/5 | 93/7 | 87/13 | 78/22 | 61/39 | 43/57 | 33/67 | no intermediates | quite fast hydrolyzing rates | no paclitaxel was found | about 2 hr | 92/8 | stable | far more better soluble in water as the parent drug paclitaxel | ≥ 10 | 3 | 90 | less cytotoxic as the parent drug |  |
| CC(=O)O[C@H]1C(=O)[C@@]2(C)[C@H]([C@H](OC(=O)c3ccccc3)[C@]3(O)C[C@H](OC(=O)[C@H](OC(=O)Cc4ccccc4NC(=O)O[C@@H]4O[C@H](C(=O)O)[C@@H](O)[C@H](O)[C@H]4O)[C@@H](NC(=O)c4ccccc4)c4ccccc4)C(C)=C1C3(C)C)[C@]1(OC(C)=O)CO[C@@H]1C[C@@H]2O [Prodrug 2a, N-[paclitaxel-2'-O-(2-amino) phenylacetate]-O-[β-glucuronyl] carbamate sodium salt] |  |  |  |  |  |  |  |  |  |  |  |  |  | not stable | far more better soluble in water as the parent drug paclitaxel | ≥ 10 | 1 | 1 | about as cytotoxic as paclitaxel | ratio of prodrug/paclitaxel ([1]; 3 hr): 55/45; ratio of prodrug/paclitaxel ([1]; 22 hr): 1/99; half-life ([1]; pbs buffer, pH 6.8, read-out: half time of decomposition to paclitaxel (converted)): 3 h |
